Experimental data taken from patent US11364248B2 (AMGEN INC., priority 2017, dated 2022).
Read-outs that look alike come from different tables or passages of the source.

Tests used:
OPM-2 = assay: Cell Viability Assay (OPM-2 10 FBS); type: cell-based, human; conditions: OPM-2 cells, CellTiter-Glo, read-out: OPM-2 10% FBS IC50 IP
Description: Cell Viability Assay (OPM-2 10 FBS)
The human multiple myeloma cell line, OPM-2, was cultured in complete growth medium containing RPMI 1640 and 10% fetal bovine serum (FBS). Cells were seeded into 384-well plates at 3000 cells/well density in complete growth medium containing 10% FBS, and incubated for 16 h with serially diluted test compounds in a 37° C. incubator with 5% CO2. Cell viability was tested using CellTiter-Glo® assay (Promega, Madison, Wis.) according to the manufacturer recommendations. Luminescence was determined using an EnVision® Multilabel plate reader 25 min after the addition of detection reagent. IC50 values were then calculated with Xlfit using a logistical 4-parameter fit model in GraphPad Prism (GraphPad Software, San Diego, Calif.) or in Genedata Screener® (Genedata, Basel, Switzerland).

Mcl-1/Bim interaction = Mcl-1/Bim interaction (Homo sapiens (Human), UniProt Q07820); assay: Cell Free Mcl-1: Bim Affinity Assay (Mcl-1 HTRF); type: binding; conditions: TR-FRET, recombinant human Mcl-1(171-327), biotin-Bim(51-76); read-out: Mel-1 HTRF IC50
Description: Cell Free Mcl-1: Bim Affinity Assay (Mcl-1 HTRF)
The inhibition of the Mcl-1/Bim interaction was measured using a time-resolved fluorescence resonance energy transfer (TR-FRET) assay. The recombinant human Mcl-1 (C-terminally 6×His tagged Mcl-1 containing residues 171-327) was generated at Amgen Inc (Thousand Oaks, Calif.). A biotinylated peptide derived from human Bim (residues 51-76) was purchased from CPC Scientific (San Jose, Calif.). The TR-FRET assay was conducted in a 384-well white OptiPlate™ (PerkinElmer, Waltham, Mass.) in a total volume of 40 μL. The reaction mixture contained 0.1 nM Mcl-1(171-327), 0.05 nM biotin-Bim(51-76), 0.05 nM LANCER Eu-W1024 Anti-6×His (PerkinElmer), 0.072 nM Streptavidin-Xlent (Cisbio, Bedford, Mass.), and serially diluted test compounds in the binding buffer of 20 mM Hepes, pH 7.5, 150 mM NaCl, 0.016 mM Brij©35, and 1 mM dithiothreitol. Test compounds were pre-incubated with Mcl-1(171-327) and biotin-Bim (51-76) for 60 min before addition of the detection mixture (LANCE Eu-W1024 Anti-6×His and Streptavidin-Xlent). The reaction plates were further incubated overnight and then were read on an Envision® multimode reader (PerkinElmer). Fluorescence signals were measured at 620 nm (40-nm bandwidth) and 665 nm (7.5-nm bandwidth) with a 60 μs delay after excitation at 320 nm (75-nm bandwidth). The signal ratio at 665/620 nm corresponded to the Mcl-1/Bim interaction and was used in all data analyses. The IC50 values of test compounds were determined from duplicate data by analyzing competition curves using a four-parameter sigmoidal model in GraphPad Prism (GraphPad Software, San Diego, Calif.) or in Genedata Screener® (Genedata, Basel, Switzerland).

Mcl-1/Bim interaction, sequence (Q07820 171-327): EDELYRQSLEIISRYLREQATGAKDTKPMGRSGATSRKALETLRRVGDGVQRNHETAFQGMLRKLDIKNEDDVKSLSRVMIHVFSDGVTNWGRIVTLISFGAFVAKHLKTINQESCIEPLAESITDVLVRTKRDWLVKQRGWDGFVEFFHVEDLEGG

SMILES	IC50 (Mcl-1/Bim interaction)	IC50 (OPM-2; 16 h)	IC50 (OPM-2; Homo sapiens, OPM-2, 16 h)
C[C@@H]1[C@@H](C)CCC[C@@H]([C@H]2OC[C@H](N(C)C)CO2)[C@@H]2CC[C@H]2CN2C[C@@]3(CCCc4cc(Cl)ccc43)COc3ccc(cc32)C(=O)NS1(=O)=O (relative stereo) [Example 6, (1S,3′R,6′R,7′R,11′S,12′R)-6-CHLORO-7′-(TRANS-5-(DIMETHYLAMINO)-1,3-DIOXAN-2-YL)-11′,12′-DIMETHYL-3,4-DIHYDRO-2H,15′H-SPIRO[NAPHTHALENE-1,22′-[20]OXA[13]THIA[1,14]DIAZATETRACYCLO[14.7.2.0˜3,6˜.0˜19,24˜]PENTACOSA[16,18,24]TRIEN]-15′-ONE 13′,13′-DIOXIDE]	0.00209 µM		0.557 µM
C[C@@H]1[C@@H](C)CCC[C@H]([C@H]2OC[C@H](N3C(=O)c4ccccc4C3=O)CO2)[C@@H]2CC[C@H]2CN2C[C@@]3(CCCc4cc(Cl)ccc43)COc3ccc(cc32)C(=O)NS1(=O)=O (relative stereo) [Example 44]	0.00208 µM	> 33.3 µM	
C[C@@H]1[C@@H](C)CCC[C@H]([C@H]2OC[C@H](N3C(=O)c4ccccc4C3=O)CO2)[C@@H]2CC[C@H]2CN2C[C@@]3(CCCc4cc(Cl)ccc43)COc3ccc(cc32)C(=O)NS1(=O)=O (relative stereo) [Example 45]	0.00468 µM		
CCN(C)[C@H]1CO[C@@H]([C@H]2CCC[C@H](C)[C@@H](C)S(=O)(=O)NC(=O)c3ccc4c(c3)N(C[C@@H]3CC[C@H]32)C[C@@]2(CCCc3cc(Cl)ccc32)CO4)OC1 (relative stereo) [Example 46]	0.00034 µM	0.047 µM	
C[C@@H]1[C@@H](C)CCC[C@H]([C@H]2OC[C@@H](N3CC4(COC4)C3)CO2)[C@@H]2CC[C@H]2CN2C[C@@]3(CCCc4cc(Cl)ccc43)COc3ccc(cc32)C(=O)NS1(=O)=O (relative stereo) [Example 59]	0.000319 µM	0.09 µM	
C[C@@H]1[C@@H](C)CCC[C@H]([C@H]2OC[C@@](CO)(N(C)C)CO2)[C@@H]2CC[C@H]2CN2C[C@@]3(CCCc4cc(Cl)ccc43)COc3ccc(cc32)C(=O)NS1(=O)=O (relative stereo) [Example 81, (1S,3′R,6′R,7′S,11′S,12′R)-6-chloro-7′-(cis-5-(dimethylamino)-5-(hydroxymethyl)-1,3-dioxan-2-yl)-11′,12′-dimethyl-3,4-dihydro-2H,15′H-spiro[naphthalene-1,22′-[20]oxa[13]thia[1,14]diazatetracyclo [14.7.2.0~3,6~.0~19,24~]pentacosa[16,18,24]trien]-15′-one 13′,13′-dioxide]	0.00332 µM	2.54 µM	
C[C@@H]1[C@@H](C)C/C=C/[C@@H]([C@H]2OC[C@H](N(C)C)CO2)[C@@H]2CC[C@H]2CN2C[C@@]3(CCCc4cc(Cl)ccc43)COc3ccc(cc32)C(=O)NS1(=O)=O (relative stereo) [Example 96]	0.000459 µM	0.314 µM	
C[C@@H]1CS(=O)(=O)NC(=O)c2ccc3c(c2)N(C[C@@H]2CC[C@H]2[C@@H]([C@H]2OC[C@@H](N(C)C)CO2)CC[C@@H]1C)C[C@@]1(CCCc2cc(Cl)ccc21)CO3 [Example 85, (1S,3′R,6′R,7′S,10′S,11′S)-6-chloro-7′-(cis-5-(dimethylamino)-1,3-dioxan-2-yl)-10′,11′-dimethyl-3,4-dihydro-2H,15′H-spiro[naphthalene-1,22′-[20]oxa[13]thia[1,14]diazatetracyclo [14.7.2.0~3,6~.0~19,24~]pentacosa[16,18,24]trien]-15′-one 13′,13′-dioxide]		1.09 µM	
COC[C@@H]1[C@@H](C)CCC[C@H]([C@H]2OC[C@@H](N(C)C)CO2)[C@@H]2CC[C@H]2CN2C[C@@]3(CCCc4cc(Cl)ccc43)COc3ccc(cc32)C(=O)NS1(=O)=O [Example 91, (1S,3′R,6′R,7′S,11′S,12′S)-6-chloro-7′-(cis-5-(dimethylamino)-1,3-dioxan-2-yl)-12′-(methoxymethyl)-11′-methyl-3,4-dihydro-2H,15′H-spiro[naphthalene-1,22′-[20]oxa[13]thia[1,14]diazatetracyclo [14.7.2.0~3,6~.0~19,24~]pentacosa[16,18,24]trien]-15′-one 13′,13′-dioxide]		0.047 µM	
COC[C@@H]1[C@@H](C)CCC[C@H]([C@H]2OC[C@@H](N(C)C)CO2)[C@@H]2CC[C@H]2CN2C[C@@]3(CCCc4cc(Cl)ccc43)COc3ccc(cc32)C(=O)NS1(=O)=O [Example 92, (1S,3′R,6′R,7′S,11′S,12′S)-6-chloro-7′-(cis-5-(dimethylamino)-1,3-dioxan-2-yl)-12′-(methoxymethyl)-11′-methyl-3,4-dihydro-2H,15′H-spiro[naphthalene-1,22′-[20]oxa[13]thia[1,14]diazatetracyclo [14.7.2.0~3,6~.0~19,24~]pentacosa[16,18,24]trien]-15′-one 13′,13′-dioxide]		0.988 µM	

More lines, main results first:

IC50 (Mcl-1/Bim interaction)	SMILES	IC50 (OPM-2; 16 h)	IC50 (OPM-2; Homo sapiens, OPM-2, 16 h)
0.0016 µM	C[C@@H]1[C@@H](C)CCC[C@@H]([C@H]2OC[C@@H](N(C)C)CO2)[C@@H]2CC[C@H]2CN2C[C@@]3(CCCc4cc(Cl)ccc43)COc3ccc(cc32)C(=O)NS1(=O)=O (relative stereo) [Example 2, (1S,3′R,6′R,7′R,11′S,12′R)-6-CHLORO-7′-(CIS-5-(DIMETHYLAMINO)-1,3-DIOXAN-2-YL)-11′,12′-DIMETHYL-3,4-DIHYDRO-2H,15′H-SPIRO[NAPHTHALENE-1,22′-[20]OXA[13]THIA[1,14]DIAZATETRACYCLO[14.7.2.0˜3,6˜.0˜19,24-]PENTACOSA[16,18,24]TRIEN]-15′-ONE 13′,13′-DIOXIDE]	0.367 µM	
0.000645 µM	C[C@@H]1[C@@H](C)CCC[C@H]([C@H]2OC[C@H](N)CO2)[C@@H]2CC[C@H]2CN2C[C@@]3(CCCc4cc(Cl)ccc43)COc3ccc(cc32)C(=O)NS1(=O)=O (relative stereo) [Example 17]	0.194 µM	
0.00137 µM	C[C@@H]1[C@@H](C)CCC[C@H]([C@H]2OC[C@H](N)CO2)[C@@H]2CC[C@H]2CN2C[C@@]3(CCCc4cc(Cl)ccc43)COc3ccc(cc32)C(=O)NS1(=O)=O (relative stereo) [Example 18]	1.05 µM	
0.00799 µM	CN[C@H]1CO[C@@H]([C@H]2CCC[C@H](C)[C@@H](C)S(=O)(=O)NC(=O)c3ccc4c(c3)N(C[C@@H]3CC[C@H]32)C[C@@]2(CCCc3cc(Cl)ccc32)CO4)OC1 (relative stereo) [Example 41]	7.07 µM	
0.000617 µM	CN[C@H]1CO[C@@H]([C@H]2CCC[C@H](C)[C@@H](C)S(=O)(=O)NC(=O)c3ccc4c(c3)N(C[C@@H]3CC[C@H]32)C[C@@]2(CCCc3cc(Cl)ccc32)CO4)OC1 (relative stereo) [Example 42]	0.217 µM	
0.000308 µM	C[C@@H]1[C@@H](C)C/C=C/[C@H]([C@H]2OC[C@@H](N(C)C)CO2)[C@@H]2CC[C@H]2CN2C[C@@]3(CCCc4cc(Cl)ccc43)COc3ccc(cc32)C(=O)NS1(=O)=O (relative stereo) [Example 97]	0.084 µM	
0.000473 µM	CO[C@H]1CO[C@@H]([C@@H]2CCC[C@H](C)[C@@H](C)S(=O)(=O)NC(=O)c3ccc4c(c3)N(C[C@@H]3CC[C@H]32)C[C@@]2(CCCc3cc(Cl)ccc32)CO4)OC1 (single isomer, unassigned) [Example 25]	0.903 µM	
0.00616 µM	CO[C@H]1CO[C@@H]([C@@H]2CCC[C@H](C)[C@@H](C)S(=O)(=O)NC(=O)c3ccc4c(c3)N(C[C@@H]3CC[C@H]32)C[C@@]2(CCCc3cc(Cl)ccc32)CO4)OC1 (single isomer, unassigned) [Example 26]	14.6 µM	
